The values that follow come from US20190175785A1, “SILK FIBROIN SYSTEMS FOR ANTIBIOTIC DELIVERY” (Trustees of Tufts College, priority 2009, published 2019).

Converted amounts (≈) assume the structure as drawn. Like-named read-outs stand apart in the source and are kept apart here.

The test system of series [1] is E. coli ATCC 25922. Particulars: E. coli ATCC 25922, NCCLS (2000); cited from earlier work.
In series [2] the test system is S. aureus ATCC 25923. Particulars: S. aureus ATCC 25923, NCCLS (2000); cited from earlier work.
Series [3] is described as follows: Long-term stability study, residual activity of stored penicillin. The series is classed as physicochemical. As to conditions: stored at 25° C. and 37° C. The protocol:
To determine if incorporation into silk films would have a similar stabilizing effect to that observed for enzymes, a long-term stability study was carried out comparing the residual activity of penicillin stored in 8% (w/v) silk films or in solution at 4° C. (refrigeration), 25° C. (room temperature) and 37° C. (body temperature).
Stability was also characterized for dry penicillin powder stored at 4° C., 25° C., and 37° C. Comparison of the stability of penicillin stored in silk films, in solution and in dry powder format over 60 days is shown in FIG. 14.

The conditions of series [4]: cited from earlier work.

As a reminder, the MIC is the lowest concentration that inhibits growth of the organism. For gentamicin, the values for the minimal inhibitory concentration (MIC) in series [1] and in series [2] were 0.5 µg/mL and 0.25 µg/mL, respectively.
Consider penicillin, for which the “stability of penicillin in solution” value in series [3] is on record as “rapidly declines”. The “time of breakdown in solution” value in series [4] (37° C.) was at most 24 h; in series [4] (room temperature (25° C.)), “within weeks”.
`Cc1nnc(SCC2=C(C(=O)O)N3C(=O)[C@@H](NC(=O)Cn4cnnn4)[C@H]3SC2)s1` [cefazolin]: the minimal inhibitory concentration (MIC) is 1.0 µg/mL (≈ 2.2 µM) in series [1] and 0.25 µg/mL (≈ 0.55 µM) in series [2].
